The values that follow come from patent US10611733B2, “Quinazolinone analogs and use of quinazolinone analogs for treating or preventing certain viral infections” (priority 2011, dated 2020).

Series [1] concerns the target HCV Con1b (Replicon). The series is described as follows: HCV Con1b (Replicon) Luciferase end-point. The format is cell-based, Hepatitis C Virus. The conditions noted are these: for CC50: read-out: TC50 (the source's name). On the technique in general: Replicon systems follow genome replication, usually without infectious particles.
The subject of series [2] is HCV Con 1b (Replicon). Description: HCV Con 1b (Replicon) RNA end-point. The format is cell-based, Hepatitis C Virus. The conditions noted are these: for IC50 / CC50: HCV Con 1b replicon, RNA end-point; for CC50: read-out: TC50 (the source's name). The procedure:
(§1) The reduction in HCV was determined with two assays using viral RNA endpoints. […] This cell line expresses a subgenomic section of the HCV genome containing NS2a, NS2b, NS3a, NS3b, NS4a, NS4b, NS5a and NS5b.

Series [3] has as its system WNV. Description: WNV antiviral assay. It is filed as cell-based, West Nile Virus. The settings on record: for CC50: read-out: TC50 (the source's name). An excerpt: (§2) The use of N-(2,3-dihydro-1H-inden-5-yl)-2-(4-oxo-3-phenyl-3,4-dihydroquinazolin-2-yl)thio) acetamide, a compound employed according to the present disclosure, for treating West Nile Virus has been disclosed. For example, please see Chung et al. A Cell Based Assay for the Identification of Lead Compounds with Anti-Viral Activity Against West Nile Virus, Probe Reports from the NIH Molecular Libraries Program[Internet]. Bethesda (Md.): National Center for Biotechnology Information (US); 2010-2010 Feb. 27 [updated 2010 Oct. 4], PMID: 21433390 [PubMed].

Series [4] relates to JEV. The series is described as follows: JEV cell based virus CPE reduction assay. Set-up: species or system Japanese Encephalitis Virus. The conditions noted are these: for CC50: read-out: TC50 (the source's name).
Source text: as §2

Series [5] is described as follows: WNV antiviral assay. It is filed as cell-based, West Nile Virus. The settings on record: read-out: TC50 (the source's name).
Source text: as §2

Series [6] is described as follows: HCV Con 1b (Replicon) RNA end-point. It is filed as cell-based, Hepatitis C Virus. The conditions noted are these: HCV Con 1b subgenomic replicon cell line; HCV Con 1b replicon, RNA end-point; read-out: TC50 (the source's name). The procedure:
as §1

Series [7] in a line: HCV Con1b (Replicon) Luciferase end-point. It is filed as cell-based, Hepatitis C Virus. The settings on record: HCV Con1b subgenomic replicon cell line, read-out: TC50 (the source's name).
Series [8] can be described thus: JEV cell based virus CPE reduction assay. Further details: species or system Japanese Encephalitis Virus. The conditions noted are these: read-out: TC50 (the source's name).
Source text: as §2

Where two headings read alike, the source gives them in different places.

One may read the IC50 as the concentration at which inhibition is half-maximal. Higher therefore signals weaker potency. For the compound `O=C(CSc1nc2ccccc2c(=O)n1-c1ccc(F)c(F)c1)Nc1cccc2c1CCC2` [Example C26, 2-[3-(3,4-difluorophenyl)-4-oxo(3-hydroquinazolin-2-ylthio)]-N-indan-4-ylacetamide], in series [1], the IC50 is less than 1 µM and the CC50 was not below 100 µM. Also, in series [2], the IC50 is less than 1 µM and the CC50 was in the range of 50 to 100 µM.

Regarding `O=C(CSc1nc2cccc(F)c2c(=O)n1-c1ccc(Cl)c(Cl)c1)Nc1ccc2c(c1)CCC2` [Example C31], in series [3], the IC50 is 5 to 25 µM and the CC50 was not below 100 µM. In addition, in series [1], the IC50 was less than 1 µM and the CC50 is 10 to 50 µM.

On to `O=C(CCSc1nc2ccccc2c(=O)n1-c1cc(F)c(F)c(F)c1)Nc1ccc2c(c1)CCC2` [Example C25, N-indan-5-yl-3-[4-oxo-3-(3,4,5-trifluorophenyl)(3-hydroquinazolin-2-ylthio)]propanamide], for which, in series [4], the IC50 was 5 to 25 µM and the CC50 was not below 100 µM.

As for `O=C(CSc1nc2cccc(F)c2c(=O)n1-c1ccccc1)Nc1ccc2c(c1)CCC2` [Example C15, 2-(5-fluoro-4-oxo-3-phenyl(3-hydroquinazolin-2-ylthio))-N-indan-5-ylacetamide], in series [2], the IC50 was 1 to 5 µM and the CC50 was not below 100 µM. Besides, in series [4], the IC50 lay within 5 to 25 µM and the CC50 is not below 100 µM.

In the case of `O=C(CSc1nc2ccccc2c(=O)n1-c1ccccc1)Nc1ccc2c(c1)CCC2` [Example C1], the IC50 in series [3] (West Nile virus) and in series [2] (Hepatitis C virus) was 5 to 25 µM each time. Moreover, the CC50 in series [5] and in series [6] was not below 100 µM throughout. Besides, the “activity against Hepatitis C Virus” value in series [2] (text statement referring to Table 1) is reported as “activity was observed”.

As for `O=C(CSc1nc2ccccc2c(=O)n1-c1ccc(Cl)c(Cl)c1)Nc1nc(-c2ccccc2)cs1` [Example C45, 2-[3-(3,4-dichlorophenyl)-4-oxo(3-hydroquinazolin-2-ylthio)]-N-(4-phenyl(1,3-thiazol-2-yl))acetamide], the IC50 in series [1] and in series [2] was less than 1 µM each time. The CC50 in series [1] is not below 100 µM; in series [2] it was 50 to 100 µM.

For `O=C(CSc1nc2ccccc2c(=O)n1-c1ccc(Cl)c(Cl)c1)Nc1ccc2c(c1)CCC2` [Example C13, 2-[3-(3,4-dichlorophenyl)-4-oxo(3-hydroquinazolin-2-ylthio)]-N-indan-5-ylacetamide], in series [3], the IC50 was in the range of 5 to 25 µM and the CC50 is not below 100 µM. Besides, in series [1], the IC50 was in the range of 1 to 5 µM and the CC50 was 50 to 100 µM.

Take `Cc1csc(NC(=O)CSc2nc3ccccc3c(=O)n2-c2ccc(Cl)c(Cl)c2)n1` [Example C8, 2-(3-(3,4-dichlorophenyl)-4-oxo-3,4-dihydroquinazolin-2-ylthio)-N-(4-methylthiazol-2-yl)acetamide]: the IC50 in series [1] (Hepatitis C virus) was 1 to 5 µM; in series [4] (Japanese encephalitis virus), 5 to 25 µM. Besides, the CC50 in series [7] and in series [8] was not below 100 µM throughout.

Turning to `Cc1csc(NC(=O)CSc2nc3ccccc3c(=O)n2-c2ccc(Cl)c(Cl)c2)n1` [Example C24, 2-[3-(3,4-dichlorophenyl)-4-oxo(3-hydroquinazolin-2-ylthio)]-N-(4-methyl(1,3-thiazol-2-yl))acetamide], in series [1], the IC50 lay in the range of 1 to 5 µM and the CC50 was not below 100 µM. In series [4], the IC50 lay in the range of 5 to 25 µM and the CC50 is not below 100 µM.

Regarding `O=C(CSc1nc2ccccc2c(=O)n1-c1ccc(F)c(Cl)c1)Nc1ccc2c(c1)CCC2` [Example C12, 2-[3-(3-chloro-4-fluorophenyl)-4-oxo(3-hydroquinazolin-2-ylthio)]-N-indan-5-ylacetamide], the figures for the IC50 in series [3], in series [1] and in series [2] were 5 to 25 µM, 1 to 5 µM and less than 1 µM, respectively. Also, the figures for the CC50 in series [3], in series [1] and in series [2] were not below 100 µM, not below 100 µM and 50 to 100 µM, respectively.

For the compound `O=C(CSc1nc2ccccc2c(=O)n1-c1ccc(F)c(F)c1)Nc1ccc2c(c1)CCC2` [Example C27, 2-[3-(3,4-difluorophenyl)-4-oxo(3-hydroquinazolin-2-ylthio)]-N-indan-5-ylacetamide], in series [3], the IC50 was in the range of 5 to 25 µM and the CC50 is not below 100 µM. In series [1], the IC50 lay within 5 to 25 µM and the CC50 was not below 100 µM.

Turning to `COc1cccc2c(=O)n(-c3ccccc3)c(SCC(=O)Nc3ccc4c(c3)CCC4)nc12` [Example C17, N-indan-5-yl-2-(8-methoxy-4-oxo-3-phenyl(3-hydroquinazolin-2-ylthio))acetamide], the IC50 is 1 to 5 µM in series [1] and 5 to 25 µM in series [4]. Also, the CC50 in series [1] and in series [4] was not below 100 µM each time.

Regarding `O=C(CSc1nc2c(F)cccc2c(=O)n1-c1cc(Cl)cc(Cl)c1)Nc1ccc2c(c1)CCC2` [Example C39, 2-[3-(3,5-dichlorophenyl)-8-fluoro-4-oxo(3-hydroquinazolin-2-ylthio)]-N-indan-5-ylacetamide], in series [3], the IC50 was in the range of 5 to 25 µM and the CC50 was 50 to 100 µM.
